Test results published in PubChem BioAssay AID248 (DTP/NCI, 2004).
Values joined by “and” are separate entries in the source; they are usually repeats but may differ in a detail not shown here. Equal values may be shown once. Inconclusive results and toxic doses are left out. Cut-off read from the data, not from the text of the source: active = T/C of 150% or more; inactive = T/C below 125%.

Tested on: L1210 leukemia ip in BDF1 mice, survival T/C
Experiment: NCI In Vivo Anticancer Drug Screen. Data for tumor model L1210 Leukemia (intraperitoneal) in B6D2F1 (BDF1) mice
Conditions: endpoint: mean survival time, higher = longer survival
How it was run: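 Tumor cells were implanted, animals were treated, and survival was followed. The result divides the treated measurement by the vehicle-control measurement.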

[1] = dose: 50.0 mg/kg/injection, schedule: Q01DX009 (ip), vehicle: Klucel (hydroxypropylcellulose) (HPC)
[2] = dose: 100.0 mg/kg/injection, schedule: Q04DX003 (ip), vehicle: Klucel (hydroxypropylcellulose) (HPC)
[3] = dose: 100.0 mg/kg/injection, schedule: Q04DX003 (ip), vehicle: saline with Tween-80
[4] = dose: 200.0 mg/kg/injection, schedule: Q04DX003 (ip), vehicle: saline with Tween-80
[5] = dose: 400.0 mg/kg/injection, schedule: Q04DX003 (ip), vehicle: saline with Tween-80
[6] = dose: 100.0 mg/kg/injection, schedule: Q01DX001 (ip), vehicle: saline
[7] = dose: 200.0 mg/kg/injection, schedule: Q01DX001 (ip), vehicle: saline
[8] = dose: 400.0 mg/kg/injection, schedule: Q01DX001 (ip), vehicle: saline
[9] = dose: 200.0 mg/kg/injection, schedule: Q04DX003 (ip), vehicle: Klucel (hydroxypropylcellulose) (HPC)

Measured: T/C

CC(c1ccccc1)n1ccnc1CO (centres undefined)
inactive: [1] 103 % of control and 112 % of control | dose: 50.0 mg/kg/injection, schedule: Q04DX003 (ip), vehicle: Klucel (hydroxypropylcellulose) (HPC) 98 % of control | dose: 100.0 mg/kg/injection, schedule: Q01DX009 (ip), vehicle: Klucel (hydroxypropylcellulose) (HPC) 102 % of control and 115 % of control | [2] 106 % of control | dose: 200.0 mg/kg/injection, schedule: Q01DX009 (ip), vehicle: Klucel (hydroxypropylcellulose) (HPC) 98 % of control

CC1(C)OCC(COCc2ccccc2)O1 (centres undefined)
inactive: [3] 96 % of control | [4] 104 % of control | [5] 95 % of control

c1ccc(C2OC3(CCCCC3)C[N+]23CCCC3)cc1 (centres undefined)
inactive: dose: 25.0 mg/kg/injection, schedule: Q01DX009 (ip), vehicle: saline with Tween-80 109 % of control | dose: 50.0 mg/kg/injection, schedule: Q01DX009 (ip), vehicle: saline with Tween-80 107 % of control | [3] 97 % of control

S=C(Nc1ccc(Cl)c(Cl)c1)SCc1ccc2c(c1)OCO2
inactive: dose: 37.5 mg/kg/injection, schedule: Q01DX009 (ip), vehicle: saline 120 % of control | dose: 75.0 mg/kg/injection, schedule: Q04DX003 (ip), vehicle: saline with Tween-80 101 % of control | dose: 150.0 mg/kg/injection, schedule: Q01DX009 (ip), vehicle: saline 102 % of control | dose: 150.0 mg/kg/injection, schedule: Q04DX003 (ip), vehicle: saline with Tween-80 104 % of control | dose: 300.0 mg/kg/injection, schedule: Q04DX003 (ip), vehicle: saline with Tween-80 123 % of control

CCCCCCCCCCCCCC#N
inactive: dose: 100.0 mg/kg/injection, schedule: Q01DX001 (ip), vehicle: other 101 % of control | dose: 200.0 mg/kg/injection, schedule: Q01DX001 (ip), vehicle: other 92 % of control | dose: 400.0 mg/kg/injection, schedule: Q01DX001 (ip), vehicle: other 92 % of control

COc1cc(NC(=O)Nc2ccccc2Cl)c(OC)cc1Cl
inactive: dose: 100.0 mg/kg/injection, schedule: Q04DX002 (ip), vehicle: saline with Tween-80 93 % of control

COC1OC(C)C(O)C(O)[CH]1[Hg][O]C(C)=O (centres undefined)
inactive: dose: 3.12 mg/kg/injection, schedule: Q01DX009 (ip), vehicle: saline 113 % of control | dose: 5.0 mg/kg/injection, schedule: Q01DX001 (ip), vehicle: saline 110 % of control | dose: 6.25 mg/kg/injection, schedule: Q01DX009 (ip), vehicle: saline 89 % of control | dose: 6.25 mg/kg/injection, schedule: Q04DX003 (ip), vehicle: saline 102 % of control | dose: 10.0 mg/kg/injection, schedule: Q01DX001 (ip), vehicle: saline 103 % of control | dose: 12.5 mg/kg/injection, schedule: Q04DX003 (ip), vehicle: saline 106 % of control

CCCCCCCCCCC[As](=O)(O)CCCCCCCCCCC
inactive: dose: 50.0 mg/kg/injection, schedule: Q01DX001 (ip), vehicle: saline 103 % of control | [6] 97 % of control | [7] 103 % of control | [8] 101 % of control

COP(=O)(OC)C(OC(=O)C(C)(C)C)=C(C)C
inactive: [3] 98 % of control | [4] 110 % of control | [5] 93 % of control

O=C(O)c1cccc(CCc2cccnc2)c1
inactive: dose: 100.0 mg/kg/injection, schedule: Q01DX001 (ip), vehicle: saline with Tween-80 98 % of control | dose: 200.0 mg/kg/injection, schedule: Q01DX001 (ip), vehicle: saline with Tween-80 101 % of control | dose: 400.0 mg/kg/injection, schedule: Q01DX001 (ip), vehicle: saline with Tween-80 93 % of control

CCOC(=O)CNc1cccc(I)c1
inactive: dose: 100.0 mg/kg/injection, schedule: Q04DX002 (ip), vehicle: Klucel (hydroxypropylcellulose) (HPC) 110 % of control | dose: 200.0 mg/kg/injection, schedule: Q04DX002 (ip), vehicle: Klucel (hydroxypropylcellulose) (HPC) 100 % of control | dose: 400.0 mg/kg/injection, schedule: Q04DX002 (ip), vehicle: Klucel (hydroxypropylcellulose) (HPC) 104 % of control

NC(=O)c1cccc([N+](=O)[O-])c1Br
inactive: [2] 103 % of control | [9] 98 % of control

ON=C(c1ccccn1)c1ccccn1
inactive: dose: 100.0 mg/kg/injection, schedule: Q01DX009 (ip), vehicle: gum acacia 93 % of control | [2] 97 % of control | dose: 200.0 mg/kg/injection, schedule: Q01DX009 (ip), vehicle: gum acacia 88 % of control | [9] 93 % of control | dose: 400.0 mg/kg/injection, schedule: Q01DX009 (ip), vehicle: gum acacia 98 % of control | dose: 400.0 mg/kg/injection, schedule: Q04DX003 (ip), vehicle: Klucel (hydroxypropylcellulose) (HPC) 95 % of control

O=[N+]([O-])c1[nH]c(Br)c(Br)c1Br
inactive: dose: 0.75 mg/kg/injection, schedule: Q01DX009 (ip), vehicle: Klucel (hydroxypropylcellulose) (HPC) 92 % of control | dose: 1.5 mg/kg/injection, schedule: Q01DX009 (ip), vehicle: Klucel (hydroxypropylcellulose) (HPC) 89 % of control | dose: 3.0 mg/kg/injection, schedule: Q01DX009 (ip), vehicle: Klucel (hydroxypropylcellulose) (HPC) 89 % of control

CCOC(=O)C1CN(C)CCC1=O (centres undefined)
inactive: [6] 108 % of control | dose: 100.0 mg/kg/injection, schedule: Q01DX009 (ip), vehicle: saline 123 % of control | dose: 100.0 mg/kg/injection, schedule: Q04DX003 (ip), vehicle: saline 100 % of control | [7] 101 % of control | dose: 200.0 mg/kg/injection, schedule: Q01DX009 (ip), vehicle: saline 98 % of control | dose: 200.0 mg/kg/injection, schedule: Q04DX003 (ip), vehicle: saline 104 % of control | [8] 97 % of control | dose: 400.0 mg/kg/injection, schedule: Q01DX009 (ip), vehicle: saline 96 % of control | dose: 400.0 mg/kg/injection, schedule: Q04DX003 (ip), vehicle: saline 98 % of control

O=C(Nc1cc([N+](=O)[O-])ccc1Cl)N(Cc1ccccc1)c1ccccc1
inactive: dose: 12.5 mg/kg/injection, schedule: Q01DX009 (ip), vehicle: Klucel (hydroxypropylcellulose) (HPC) 94 % of control and 95 % of control | dose: 25.0 mg/kg/injection, schedule: Q01DX009 (ip), vehicle: Klucel (hydroxypropylcellulose) (HPC) 94 % of control and 97 % of control | [1] 89 % of control

CCOC(=O)C(CCc1c[nH]c(=O)[nH]c1=O)(NC(C)=O)C(=O)OCC
inactive: dose: 50.0 mg/kg/injection, schedule: Q04DX002 (ip), vehicle: saline 102 % of control | dose: 100.0 mg/kg/injection, schedule: Q04DX002 (ip), vehicle: saline 122 % of control | dose: 200.0 mg/kg/injection, schedule: Q04DX002 (ip), vehicle: saline 102 % of control | dose: 400.0 mg/kg/injection, schedule: Q04DX002 (ip), vehicle: saline 104 % of control

Cc1ccc(S(=O)(=O)OCC2OC(C)(C)OC3C(COS(=O)(=O)c4ccc(C)cc4)OC(C)(C)OC23)cc1 (centres undefined)
inactive: [6] 99 % of control | [7] 89 % of control | [8] 99 % of control
